Source: publication PMC10709440, “High-throughput ligand profile characterization in novel cell lines expressing seven heterologous insect olfactory receptors for the detection of volatile plant biomarkers” (Scientific Reports, 2023)

Tests used:
[1] = biological target: T1, Drosophila OR13a (Drosophila melanogaster, UniProt Q9VXL0); experiment: cell-based; design: GCaMP6 calcium fluorescence in stable HEK293 OR+ORCO lines; peak dF normalised to 50 uM VUAA1 (=1); conditions: HEK293; relative to 50 uM VUAA1 response; below 0.05 set to 0; read-out: % activation
T1 construct: expressed in transfected cells
T1 sequence (Q9VXL0 1-418): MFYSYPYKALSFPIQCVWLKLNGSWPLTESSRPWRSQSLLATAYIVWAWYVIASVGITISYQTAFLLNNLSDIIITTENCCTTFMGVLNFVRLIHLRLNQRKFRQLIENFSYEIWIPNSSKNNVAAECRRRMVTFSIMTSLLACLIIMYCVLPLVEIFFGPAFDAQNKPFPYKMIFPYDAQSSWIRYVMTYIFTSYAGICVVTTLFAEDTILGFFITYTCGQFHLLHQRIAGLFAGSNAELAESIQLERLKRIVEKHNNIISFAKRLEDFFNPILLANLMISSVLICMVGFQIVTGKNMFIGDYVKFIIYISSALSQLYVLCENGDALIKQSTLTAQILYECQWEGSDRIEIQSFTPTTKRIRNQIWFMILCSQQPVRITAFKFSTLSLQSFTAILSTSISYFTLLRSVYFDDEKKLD
T1 sequence (Q9VNB5 1-486 partner): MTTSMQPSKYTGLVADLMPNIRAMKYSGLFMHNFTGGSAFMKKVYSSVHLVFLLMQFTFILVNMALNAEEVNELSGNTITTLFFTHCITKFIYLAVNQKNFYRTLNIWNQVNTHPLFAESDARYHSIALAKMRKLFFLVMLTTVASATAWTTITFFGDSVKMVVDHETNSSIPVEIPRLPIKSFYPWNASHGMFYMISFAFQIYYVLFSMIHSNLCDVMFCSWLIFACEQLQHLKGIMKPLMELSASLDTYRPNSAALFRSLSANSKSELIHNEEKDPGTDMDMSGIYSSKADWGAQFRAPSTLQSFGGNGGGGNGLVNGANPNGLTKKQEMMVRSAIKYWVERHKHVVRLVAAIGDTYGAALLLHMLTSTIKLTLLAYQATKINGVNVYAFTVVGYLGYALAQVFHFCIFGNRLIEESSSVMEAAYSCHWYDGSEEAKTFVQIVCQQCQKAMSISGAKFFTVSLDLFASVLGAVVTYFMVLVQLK
Procedure: (§1) Twelve thousand to 18,000 cells were plated into each well of a black wall, transparent bottom 384-well microplate (Greiner) 48 h or 72 h before the measurements and were simultaneously treated with 1 μg/mL doxycycline. Typically, three columns were filled with one OR expressing cell line, each row was treated with the same compound (three technical replicates for each OR), and each responsive VOC-OR combination was measured at least three times on different days. The plate has 24 columns, thus we could record responses in up to eight different cell lines in each plate. On the day of the experiment, the growth medium was replaced with 20 µL assay buffer/well (140 mM NaCl, 5 mM KCl, 2 mM CaCl2, 1 mM MgCl2, 5 mM HEPES-Na, 20 mM glucose, pH 7.3, 340 mOsm). […] Baseline fluorescence (F0) was recorded for 5 s, after which 7 µL VOC buffer (140 mM NaCl, 5 mM KCl, 2 mM CaCl2, 1 mM MgCl2, 5 mM HEPES-Na, 31 mM glucose, 0.1% DMSO, pH 7.3, 340 mOsm) was injected into each well in one row and the fluorescence response was recorded for an additional 30 s, at a rate of one read/sec. VOC solutions (VOC buffer with 4× concentration of the final measured VOC concentration, 9 µL/well was injected) were measured on the same wells in a second round with the same protocol. Each individual concentration of a specific VOC sample was recorded in three wells for the same cell line on the same microplate. The raw data were exported in xls file format, F0 and FMAX values, and the fluorescence intensity changes (∆F) were calculated in Excel (Microsoft) (Supplementary file Data summary.xlsx) using the following equation: ΔF=FMAX-F0/F0 (see also Fig. 1C). On each plate, we recorded the response of each cell line to 50 µM VUAA1. The average of these ∆F values of each cell line were used to calculate the VUAA1-normalized values for the rest of the plate, by dividing VOC response ∆F values by the average VUAA1 response ∆F value of the corresponding OR cell line. Each VOC-OR combination was measured three times as tec The recorded FMAX, F0, ∆F, VUAA1-normalized ∆F values, as well as the OR name, the name of the tested sample, and the final concentration for each well were copied into supplementary file Data summary.xlsx, that was used to summarize all the plates recorded. Here, the averages of the measurements were calculated for each receptor-VOC-concentration combination. […] Each VOC was measured at 1, 10, and 100 µM final concentration on each receptor. VUAA1-normalized response was calculated as described in methods. Values are averages of at least three biological replicates for responsive combinations and two for the non-responsive combinations. The chemical structures of the strong and medium ligands are shown for each cell line. Heat map: white-green colors correspond to the lowest-highest values measured for each cell line.

[2] = biological target: T2, Drosophila OR98a (Drosophila melanogaster, UniProt Q9VAZ3); experiment: cell-based; design: GCaMP6 calcium fluorescence in stable HEK293 OR+ORCO lines; peak dF normalised to 50 uM VUAA1 (=1); conditions: HEK293; relative to 50 uM VUAA1 response; below 0.05 set to 0; read-out: % activation
T2 construct: expressed in transfected cells
T2 sequence (Q9VAZ3 1-397): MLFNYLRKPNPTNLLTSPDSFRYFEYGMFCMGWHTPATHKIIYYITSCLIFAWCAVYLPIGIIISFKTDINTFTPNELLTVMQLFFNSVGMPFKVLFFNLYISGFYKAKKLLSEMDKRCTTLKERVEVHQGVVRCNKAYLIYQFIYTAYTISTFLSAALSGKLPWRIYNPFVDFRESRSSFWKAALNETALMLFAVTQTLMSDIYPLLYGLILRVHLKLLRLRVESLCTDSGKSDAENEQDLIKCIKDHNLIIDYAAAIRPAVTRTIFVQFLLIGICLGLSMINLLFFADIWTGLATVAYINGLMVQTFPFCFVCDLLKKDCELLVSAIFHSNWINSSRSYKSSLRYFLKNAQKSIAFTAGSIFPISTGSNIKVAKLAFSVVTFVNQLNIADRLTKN
T2 sequence (Q9VNB5 1-486 partner): T1 sequence (Q9VNB5 1-486 partner)
Procedure: as §1

SMILES: CC/C=C/CCO [e3-hexenol]
- activity at 1 µM [1]: 0%
- activity at 10 µM [1]: 0%
- activity at 100 µM [1]: 7.11%
- activity at 1 µM [2]: 0%
- activity at 10 µM [2]: 0%
- activity at 100 µM [2]: 0%
